# In PubChem BioAssay AID1745844 (Carcinogenic Potency Database (CPDB), 2022):
# Values joined by “and” are separate entries in the source; they are usually repeats but may differ in a detail not shown here. Identical values can stand only once. Active and inactive are the calls of the source. The rule behind the calls is not given here.
# Tested on: rodent lifetime carcinogenesis bioassay, tumor incidence TD50
# Experiment: carcinogenic potency in animals, long-term in vivo studies, CPDB compilation (AID 1745844)
# Details: in feed
compound,measurement,setting,value
Cc1ccccc1N,TD50,"mouse, strain B6C3F1, females, site: any site (literature study), lesion: several types, types named in the paper, dosed 102 weeks, study length 102 weeks",1350 mg/kg/day
same,TD50,"mouse, strain B6C3F1, females, site: liver, lesion: hepatocellular adenoma + hepatocellular carcinoma + neoplastic nodule, dosed 102 weeks, study length 102 weeks",754 mg/kg/day
same,TD50,"mouse, strain B6C3F1, females, site: liver, lesion: hepatocellular adenoma + hepatocellular carcinoma, dosed 102 weeks, study length 102 weeks",754 mg/kg/day
same,TD50,"mouse, strain B6C3F1, females, site: liver, lesion: hepatocellular carcinoma, dosed 102 weeks, study length 102 weeks",1520 mg/kg/day
same,TD50,"mouse, strain B6C3F1, males, site: all sites, lesion: hemangioma + hemangiosarcoma, dosed 102 weeks, study length 102 weeks",926 mg/kg/day
same,TD50,"mouse, strain B6C3F1, males, site: all sites, lesion: hemangiosarcoma, dosed 102 weeks, study length 102 weeks",1220 mg/kg/day
same,TD50,"mouse, strain B6C3F1, males, site: liver, lesion: hepatocellular adenoma + hepatocellular carcinoma + neoplastic nodule, dosed 102 weeks, study length 102 weeks",12700 mg/kg/day
same,TD50,"mouse, strain CD-1 HaM/ICR, females, site: all sites, lesion: all vascular tumors, dosed 68 weeks, study length 90 weeks",1240 mg/kg/day
same,TD50,"mouse, strain CD-1 HaM/ICR, females, site: any site (literature study), lesion: several types, types named in the paper, dosed 68 weeks, study length 90 weeks",699 mg/kg/day
same,TD50,"mouse, strain CD-1 HaM/ICR, females, site: liver, lesion: several types, types named in the paper, dosed 68 weeks, study length 90 weeks",1650 mg/kg/day (inactive)
same,carcinogen call,"mouse, strain CD-1 HaM/ICR, females, site: lung, lesion: several types, types named in the paper, dosed 68 weeks, study length 90 weeks",negative (inactive)
same,TD50,"mouse, strain CD-1 HaM/ICR, males, site: all sites, lesion: all vascular tumors, dosed 68 weeks, study length 90 weeks",646 mg/kg/day and 660 mg/kg/day
same,TD50,"mouse, strain CD-1 HaM/ICR, males, site: any site (literature study), lesion: several types, types named in the paper, dosed 68 weeks, study length 90 weeks",325 mg/kg/day
same,TD50,"mouse, strain CD-1 HaM/ICR, males, site: liver, lesion: several types, types named in the paper, dosed 68 weeks, study length 90 weeks",1400 mg/kg/day (inactive)
same,TD50,"mouse, strain CD-1 HaM/ICR, males, site: lung, lesion: several types, types named in the paper, dosed 68 weeks, study length 90 weeks",1160 mg/kg/day (inactive)
same,TD50,"rat, strain Charles River CD (Sprague-Dawley), males, site: any site (literature study), lesion: several types, types named in the paper, dosed 64 weeks, study length 68 weeks",36.1 mg/kg/day
same,TD50,"rat, strain Charles River CD (Sprague-Dawley), males, site: liver, lesion: several types, types named in the paper, dosed 64 weeks, study length 68 weeks",2960 mg/kg/day (inactive)
same,TD50,"rat, strain Charles River CD (Sprague-Dawley), males, site: subcutaneous tissue, lesion: several types, types named in the paper, dosed 64 weeks, study length 68 weeks",36.7 mg/kg/day and 38.8 mg/kg/day
same,TD50,"rat, strain Charles River CD (Sprague-Dawley), males, site: urinary bladder, lesion: several types, types named in the paper, dosed 64 weeks, study length 68 weeks",131 mg/kg/day
same,TD50,"rat, strain Fischer 344, females, site: any site (literature study), lesion: several types, types named in the paper, dosed 104 weeks, study length 104 weeks",75.8 mg/kg/day
same,TD50,"rat, strain Fischer 344, females, site: mammary gland + multiple organs + spleen + urinary bladder, lesion: adenoma, NOS + fibroadenoma + angiosarcoma + fibrosarcoma + osteosarcoma + sarcoma, NOS + transitional-cell carcinoma + transitional-c, dosed 104 weeks, study length 104 weeks",77.9 mg/kg/day
same,TD50,"rat, strain Fischer 344, females, site: mammary gland, lesion: adenoma, NOS + fibroadenoma, dosed 104 weeks, study length 104 weeks",119 mg/kg/day
same,TD50,"rat, strain Fischer 344, females, site: mammary gland, lesion: fibroadenoma, dosed 104 weeks, study length 104 weeks",115 mg/kg/day
same,TD50,"rat, strain Fischer 344, females, site: multiple organs, lesion: angiosarcoma + fibrosarcoma + osteosarcoma + sarcoma, NOS, dosed 104 weeks, study length 104 weeks",332 mg/kg/day
same,TD50,"rat, strain Fischer 344, females, site: multiple organs, lesion: osteosarcoma, dosed 104 weeks, study length 104 weeks",423 mg/kg/day
same,TD50,"rat, strain Fischer 344, females, site: spleen, lesion: angiosarcoma + osteosarcoma + sarcoma, NOS, dosed 104 weeks, study length 104 weeks",337 mg/kg/day
same,TD50,"rat, strain Fischer 344, females, site: spleen, lesion: angiosarcoma, dosed 104 weeks, study length 104 weeks",450 mg/kg/day
same,TD50,"rat, strain Fischer 344, females, site: urinary bladder, lesion: transitional-cell carcinoma + transitional-cell papilloma, dosed 104 weeks, study length 104 weeks",175 mg/kg/day
same,TD50,"rat, strain Fischer 344, females, site: urinary bladder, lesion: transitional-cell carcinoma, dosed 104 weeks, study length 104 weeks",185 mg/kg/day
same,TD50,"rat, strain Fischer 344, males, site: any site (literature study), lesion: several types, types named in the paper, dosed 102 weeks, study length 104 weeks",24.4 mg/kg/day
same,TD50,"rat, strain Fischer 344, males, site: liver, lesion: hepatocellular adenoma + hepatocellular carcinoma + neoplastic nodule, dosed 102 weeks, study length 104 weeks",645 mg/kg/day
same,TD50,"rat, strain Fischer 344, males, site: liver, lesion: several types, types named in the paper, dosed 72 weeks, study length 93 weeks",1000 mg/kg/day
same,TD50,"rat, strain Fischer 344, males, site: mammary tissue, wider than the gland, lesion: fibroadenoma, dosed 72 weeks, study length 93 weeks",149 mg/kg/day
same,TD50,"rat, strain Fischer 344, males, site: multiple organs + spleen + subcutaneous tissue + tunica vaginalis, lesion: angiosarcoma + fibrosarcoma + mesothelioma + osteosarcoma + sarcoma, NOS + fibroma, dosed 102 weeks, study length 104 weeks",23.3 mg/kg/day
same,TD50,"rat, strain Fischer 344, males, site: multiple organs + tunica vaginalis, lesion: mesothelioma, dosed 102 weeks, study length 104 weeks",97.4 mg/kg/day
same,TD50,"rat, strain Fischer 344, males, site: multiple organs, lesion: angiosarcoma + fibrosarcoma + osteosarcoma + sarcoma, NOS, dosed 102 weeks, study length 104 weeks",93.2 mg/kg/day
same,TD50,"rat, strain Fischer 344, males, site: multiple organs, lesion: fibrosarcoma, dosed 102 weeks, study length 104 weeks",184 mg/kg/day
same,TD50,"rat, strain Fischer 344, males, site: multiple organs, lesion: sarcoma, NOS, dosed 102 weeks, study length 104 weeks",394 mg/kg/day
same,TD50,"rat, strain Fischer 344, males, site: peritoneal cavity, lesion: spindle-cell sarcoma, dosed 72 weeks, study length 93 weeks",190 mg/kg/day
same,TD50,"rat, strain Fischer 344, males, site: skin, lesion: fibroma, dosed 72 weeks, study length 93 weeks",38.7 mg/kg/day
same,TD50,"rat, strain Fischer 344, males, site: spleen, lesion: fibroma, dosed 72 weeks, study length 93 weeks",167 mg/kg/day
same,TD50,"rat, strain Fischer 344, males, site: spleen, lesion: fibroma, dosed 102 weeks, study length 104 weeks",134 mg/kg/day
same,TD50,"rat, strain Fischer 344, males, site: subcutaneous tissue, lesion: fibroma, dosed 102 weeks, study length 104 weeks",33.3 mg/kg/day
same,TD50,"rat, strain Fischer 344, males, site: urinary bladder, lesion: several types, types named in the paper, dosed 72 weeks, study length 93 weeks",474 mg/kg/day
